For this assay, the target named is T1, α2AAR (Homo sapiens, UniProt P08913).
T1 construct: host or cells: HEK293 (membranes)
T1 sequence (P08913 1-465): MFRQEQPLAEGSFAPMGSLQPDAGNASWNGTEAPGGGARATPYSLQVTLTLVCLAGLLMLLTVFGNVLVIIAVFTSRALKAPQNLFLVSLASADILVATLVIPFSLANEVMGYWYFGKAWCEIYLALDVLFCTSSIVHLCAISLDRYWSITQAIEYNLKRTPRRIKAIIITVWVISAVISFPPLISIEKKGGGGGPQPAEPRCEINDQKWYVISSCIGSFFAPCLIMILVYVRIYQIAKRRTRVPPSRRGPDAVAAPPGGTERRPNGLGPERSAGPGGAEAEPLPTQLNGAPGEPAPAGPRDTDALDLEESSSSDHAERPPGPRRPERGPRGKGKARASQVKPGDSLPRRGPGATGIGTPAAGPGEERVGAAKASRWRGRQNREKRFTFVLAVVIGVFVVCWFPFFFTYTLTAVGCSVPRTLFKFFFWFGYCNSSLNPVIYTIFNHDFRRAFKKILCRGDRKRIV
Kind of assay: α2AAR binding assay ([3H]-RX 821002 radioligand). As to the method: The α2AR Binding Assay was conducted using a stable HEK293 cell line, specifically constructed by WuXi AppTec for targeting α2AAR. […] Both the assay and wash buffers consist of 50 mM Tris-HCl at a pH of 7.4 (Tris base, Sigma, T1503-1 KG).
The procedure initiated with the preparation of test compounds and a reference compound, yohimbine (Sigma, Y3125), through an 8-point 4-fold serial dilution, transferring 1 μL of each to the assay plate. […] After scaling, the plates were agitated at room temperature for one hour. Subsequently, the Unifilter-96 GF/C filter plates were pre-soaked with 0.3% PEI (Sigma, P3143) for at least half an hour. The reaction mixtures were then filtered and washed four times with cold wash buffer using a Perkin Elmer Cell harvester. Post-filtration, the plates were dried at 50° C. for one hour. […] The top of the plates was then sealed with TopSeal-A sealing film. The trapped 3H was quantified using a Perkin Elmer MicroBeta2 Reader. […] Finally, the data were analyzed with Prism 5.0 software, employing the “log (inhibitor) vs. response-Variable slope” model for data fitting. This comprehensive process ensured precise assessment of the binding affinity of compounds to the α2AAR.

[1] abbreviates: [3H]-RX 821002 0.5 nM, HEK293 membranes, read-out: α2A affinity (Ki).

Experimental findings from patent publication US20240374573A1, “IMIDAZOLE CONTAINING COMPOUNDS, DERIVATIVES THEREFORE, AND USES THEREOF” (AglaeaPharma Inc., priority 2023, published 2024) are described below.

Where two headings read alike, the source gives them in different places. Where only a bound is given, the exact number is not on record here.

With `Cc1cccc(C(c2cccc(NC(=O)CCC#N)c2)c2c[nH]cn2)c1C` (single isomer, unassigned) [43-A], under setting [1], the Ki is more than 1000 nM.
Still for that read-out and setting: the result for `Cc1cccc(C(c2c[nH]cn2)c2cccc(C(N)=O)c2F)c1C` (single isomer, unassigned) [45-A] reads more than 1000 nM.
Still for that read-out and setting: the result for `Cc1cccc(C(c2cccc(OCCNS(C)(=O)=O)c2)c2c[nH]cn2)c1C` (single isomer, unassigned) [46-A] reads more than 1000 nM; that for `Cc1cccc(C(c2cccc(C(=O)NCC3CCOCC3)c2)c2c[nH]cn2)c1C` (single isomer, unassigned) [98-A], 250 to 1000 nM.
The compound `Cc1cccc(C(c2cnc[nH]2)C2CCc3ccc(O)cc32)c1C` (single isomer, unassigned) [100-A] yielded a Ki (α2A affinity (Ki, nM)) of less than 10 nM.
Same read-out and setting: the same measure for `Cc1cccc(C(c2cnc[nH]2)C2CCc3ccc(O)cc32)c1C` (single isomer, unassigned) [100-B]: 50 to 250 nM.
Regarding `Cc1cccc(C(Cc2cccc(NS(=O)(=O)CC3CCOCC3)c2)c2c[nH]cn2)c1C` (single isomer, unassigned) [112-A], under setting [1], the Ki lay in the range of 250 to 1000 nM.
As to `Cc1cccc(C(c2c[nH]cn2)c2cccc(C(=O)NCC3CCOCC3)c2F)c1C` (single isomer, unassigned) [124-A], the inhibition constant (Ki) under setting [1] fell in the range of 250 to 1000 nM.
As for `Cc1cccc(C(Cc2ccc(C(N)=O)c(F)c2)c2c[nH]cn2)c1C` (single isomer, unassigned) [156-A], the inhibition constant Ki under setting [1] is more than 1000 nM.
The same measure, in the same setting: the same measure for `Cc1cccc(C(Cc2ccc(C(=O)O)cc2)c2c[nH]cn2)c1C` (single isomer, unassigned) [175-A]: more than 1000 nM; for `Cc1cccc(C(OCCOCCNS(C)(=O)=O)c2c[nH]cn2)c1C` (centres unmarked) [compound 40]: more than 1000 nM.
The same measure, in the same setting: the result for `Cc1cccc(C(c2c[nH]cn2)c2cccc(NC(=O)CC#N)c2F)c1C` (centres unmarked) [compound 41] reads 50 to 250 nM.
Still for that read-out and setting: the result for `Cc1cccc(C(c2cccc(NC(=O)CCC(N)=O)c2)c2c[nH]cn2)c1C` (centres unmarked) [compound 42] reads 50 to 250 nM; that for `Cc1cccc(C(c2cccc(OCCC#N)c2)c2c[nH]cn2)c1C` (centres unmarked) [compound 48], more than 1000 nM; that for `CONC(=O)c1cccc(C(c2ccccc2)c2c[nH]cn2)c1` (centres unmarked) [compound 49], more than 1000 nM.
As to `CONC(=O)c1cc(C(c2c[nH]cn2)c2cccc(C)c2C)ccc1F` (centres unmarked) [compound 53], the Ki under setting [1] was in the range of 250 to 1000 nM.
On to `Cc1cccc(C(c2ccnc(NS(C)(=O)=O)c2)c2c[nH]cn2)c1C` (centres unmarked) [compound 57], for which, under setting [1], the Ki lay in the range of 250 to 1000 nM.
Same read-out and setting: the same measure for `Cc1cccc(C(c2c[nH]cn2)c2ccnc(C(N)=O)c2F)c1C` (centres unmarked) [compound 58]: 50 to 250 nM; for `Cc1cccc(C(c2c[nH]cn2)C2CCCC(C(=O)O)C2)c1C` (centres unmarked) [compound 60]: 250 to 1000 nM; for `COC(=O)Nc1cccc(C(c2c[nH]cn2)c2cccc(C)c2C)c1` (centres unmarked) [compound 62]: 50 to 250 nM.
The same measure, in the same setting: the same measure for `CC(=O)NCc1cccc(C(c2c[nH]cn2)c2cccc(C)c2C)c1` (centres unmarked) [compound 65]: 50 to 250 nM.
In the case of `Cc1cccc(C(COCCNS(C)(=O)=O)c2c[nH]cn2)c1C` (centres unmarked) [compound 66], the Ki (α2A affinity (Ki, nM)) is 250 to 1000 nM.
`Cc1cccc(C(c2cccc(C#N)c2)c2c[nH]cn2)c1C` (centres unmarked) [compound 68]: the Ki under setting [1] lay within 50 to 250 nM.
Still for that read-out and setting: the same measure for `Cc1cccc(C(c2cccc(CNS(C)(=O)=O)c2)c2c[nH]cn2)c1C` (centres unmarked) [compound 69]: 50 to 250 nM.
With `Cc1cccc(C(c2cccc(N(C)S(C)(=O)=O)c2)c2c[nH]cn2)c1C` (centres unmarked) [compound 71], under setting [1], the Ki is 10 to 50 nM.
Take `Cc1c(F)cccc1C(c1cccc(NS(C)(=O)=O)c1)c1c[nH]cn1` (centres unmarked) [compound 75]: the Ki under setting [1] lay in the range of 50 to 250 nM.
The same measure, in the same setting: the result for `Cc1cccc(C(c2cccc(NS(=O)(=O)C(F)(F)F)c2)c2c[nH]cn2)c1C` (centres unmarked) [compound 77] reads 250 to 1000 nM.
On the same count and under the same terms, the result for `CS(=O)(=O)Nc1cccc(C(c2c[nH]cn2)c2c(F)cccc2Cl)c1` (centres unmarked) [compound 78] reads 250 to 1000 nM; that for `Cc1cccc(C(c2cccc(NC(=O)CCN3CCN(C)CC3)c2)c2c[nH]cn2)c1C` (centres unmarked) [compound 82], more than 1000 nM; that for `Cc1cccc(C(c2cccc(NCCNS(C)(=O)=O)c2)c2c[nH]cn2)c1C` (centres unmarked) [compound 83], 50 to 250 nM.
On the same count and under the same terms, the result for `Cc1cccc(C(c2cccc(NC(=O)c3cn[nH]c3)c2)c2c[nH]cn2)c1C` (centres unmarked) [compound 87] reads 50 to 250 nM; that for `Cc1cccc(C(c2cccc(C(=O)NOCCN3CCOCC3)c2)c2c[nH]cn2)c1C` (centres unmarked) [compound 91], 50 to 250 nM.
For `Cc1cccc(C(c2c[nH]cn2)C2CCCC(C(N)=O)C2)c1C` (centres unmarked) [compound 92], the Ki under setting [1] was more than 1000 nM.
Turning to `Cc1cccc(C(CCOCCOCCNS(C)(=O)=O)c2c[nH]cn2)c1C` (centres unmarked) [compound 93], under setting [1], the Ki lay in the range of 250 to 1000 nM.
Still for that read-out and setting: the same measure for `Cc1cccc(C(c2c[nH]cn2)N2CCc3ccc(NS(C)(=O)=O)cc32)c1C` (centres unmarked) [compound 106]: 50 to 250 nM; for `Cc1cccc(C(c2cccc(NC(=O)CN3CCNCC3)c2)c2c[nH]cn2)c1C` (centres unmarked) [compound 107]: 50 to 250 nM.
Same read-out and setting: the same measure for `Cc1cccc(C(c2cccc(NC(=O)CN(C)C)c2)c2c[nH]cn2)c1C` (centres unmarked) [compound 110]: 50 to 250 nM; for `Cc1c(F)cccc1C(c1cccc(NC(=O)CC2CCOCC2)c1)c1c[nH]cn1` (centres unmarked) [compound 113]: 50 to 250 nM.
Still for that read-out and setting: the result for `Cc1cccc(C(c2cccc(CN3CCCCC3)c2)c2c[nH]cn2)c1C` (centres unmarked) [compound 114] reads more than 1000 nM.
On to `Cc1c(CO)cccc1C(c1cccc(NS(C)(=O)=O)c1)c1c[nH]cn1` (centres unmarked) [compound 115], for which the Ki under setting [1] is 250 to 1000 nM.
For the compound `Cc1cccc(C(c2cccc(COCCNS(C)(=O)=O)c2)c2c[nH]cn2)c1C` (centres unmarked) [compound 116], the Ki under setting [1] lay in the range of 10 to 50 nM.
Still for that read-out and setting: the same measure for `Cc1cccc(C(c2cccc(CCN3CCC(O)CC3)c2)c2c[nH]cn2)c1C` (centres unmarked) [compound 125]: 10 to 50 nM.
Still for that read-out and setting: the result for `CNS(=O)(=O)Nc1cccc(C(c2c[nH]cn2)c2cccc(C)c2C)c1` (centres unmarked) [compound 127] reads 10 to 50 nM.
Same read-out and setting: the result for `CNC(=O)Nc1cccc(C(c2c[nH]cn2)c2cccc(C)c2C)c1` (centres unmarked) [compound 128] reads 50 to 250 nM; that for `C=CC(=O)Nc1cccc(C(c2c[nH]cn2)c2cccc(C)c2C)c1` (centres unmarked) [compound 129], 50 to 250 nM; that for `Cc1csc(CCS(=O)(=O)Nc2cccc(C(c3c[nH]cn3)c3cccc(C)c3C)c2)n1` (centres unmarked) [compound 131], 10 to 50 nM.
With `COc1ccccc1C(c1cccc(NC(=O)CC2CCOCC2)c1)c1c[nH]cn1` (centres unmarked) [compound 132], the inhibitory constant (Ki) under setting [1] lay in the range of 50 to 250 nM.
In the case of `COc1ccccc1C(c1cccc(NS(C)(=O)=O)c1)c1c[nH]cn1` (centres unmarked) [compound 135], the Ki under setting [1] lay within 50 to 250 nM.
Same read-out and setting: the result for `CCc1ccccc1C(c1cccc(NS(C)(=O)=O)c1)c1c[nH]cn1` (centres unmarked) [compound 140] reads 50 to 250 nM.
`Cc1cccc(C(Cc2cccc(NS(=O)(=O)CC3CCOCC3)c2)c2c[nH]cn2)c1C` (centres unmarked) [compound 142]: the Ki under setting [1] was less than 10 nM.
The same measure, in the same setting: the same measure for `Cc1cccc(C(c2cccc(NC(=O)CC[N+](C)(C)C)c2)c2c[nH]cn2)c1C` (centres unmarked) [compound 144]: 50 to 250 nM; for `CONC(=O)c1cc(C(c2c[nH]cn2)c2cccc(C)c2C)cs1` (centres unmarked) [compound 182]: 50 to 250 nM; for `Cc1cccc(C(CCc2ccccc2NS(C)(=O)=O)c2c[nH]cn2)c1C` (centres unmarked) [compound 183]: 250 to 1000 nM.
Compound `Cc1cccc(C(CCCNS(C)(=O)=O)c2c[nH]cn2)c1C` (centres unmarked) [compound 184] returned a Ki (α2A affinity (Ki, nM)) of 250 to 1000 nM.
For `Cc1cccc(C(CC23CC4CC(C2)CC(C(N)=O)(C4)C3)c2c[nH]cn2)c1C` (centres unmarked) [compound 188], the Ki under setting [1] is more than 1000 nM.
Same read-out and setting: the same measure for `Cc1cccc(C(c2cccc(NS(=O)(=O)CCc3cncnc3)c2)c2c[nH]cn2)c1C` (centres unmarked) [compound 189]: 10 to 50 nM; for `Cc1cccc(C(CCCCNS(C)(=O)=O)c2c[nH]cn2)c1C` (centres unmarked) [compound 191]: 50 to 250 nM.
Same read-out and setting: the result for `Cc1cccc(C(Cc2ccc(P(=O)(O)O)cc2)c2c[nH]cn2)c1C` (centres unmarked) [compound 199] reads more than 1000 nM; that for `Cc1cccc(C(Cc2ccc(C(N)=O)nc2)c2c[nH]cn2)c1C` (centres unmarked) [compound 238], 50 to 250 nM; that for `Cc1cccc(C(CCCCCC(N)=O)c2c[nH]cn2)c1C` (centres unmarked) [compound 240], 250 to 1000 nM.
Take `Cc1cccc(C(CCCCCNS(C)(=O)=O)c2c[nH]cn2)c1C` (centres unmarked) [compound 249]: the Ki (α2A affinity (Ki, nM)) fell in the range of 50 to 250 nM.
Take `Cc1cccc(C(CCCCNS(=O)(=O)C2CCOCC2)c2c[nH]cn2)c1C` (centres unmarked) [compound 250]: under setting [1], the Ki was 50 to 250 nM.
For `Cc1csc(C)c1C(c1cccc(NS(C)(=O)=O)c1)c1c[nH]cn1` (centres unmarked) [compound 402], the Ki under setting [1] was in the range of 250 to 1000 nM.
On the same count and under the same terms, the result for `CS(=O)(=O)Nc1cccc(CC(C2=NCCN2)c2c(Cl)cccc2Cl)c1` (centres unmarked) [compound 501] reads 250 to 1000 nM; that for `NC(=O)c1cccc(CC(Oc2c(Cl)cccc2Cl)C2=NCCN2)c1` (centres unmarked) [compound 502], 50 to 250 nM.
